Results taken from patent publication US20230128972A1, “Anat Inhibitors and Methods of Use Thereof” (Atomwise Inc., priority 2020, published 2023).

Target: T1, aspartate N-acetyltransferase (ANAT) (Homo sapiens, UniProt Q8N9F0)
T1 construct: 6xHis (C); made in house; host or cells: E. coli BL21(DE3)
T1 sequence (Q8N9F0 1-302): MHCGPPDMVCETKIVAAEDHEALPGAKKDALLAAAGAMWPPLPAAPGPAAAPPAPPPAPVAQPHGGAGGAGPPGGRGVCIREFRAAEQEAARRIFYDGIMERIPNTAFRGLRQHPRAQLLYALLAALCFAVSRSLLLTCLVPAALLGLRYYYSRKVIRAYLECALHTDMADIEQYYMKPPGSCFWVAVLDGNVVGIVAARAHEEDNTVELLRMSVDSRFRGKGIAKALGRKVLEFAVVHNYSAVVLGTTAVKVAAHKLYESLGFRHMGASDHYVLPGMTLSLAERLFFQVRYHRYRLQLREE
Assay: ANAT in vitro activity assay (DTNB, coenzyme A production)
Assay type: biochemical
Settings: for Ki: dose-response protocol, competitive inhibition fit, Km for L-aspartate 160 μM; for potency against ANAT: dose-response protocols, in words
Description: The experimental assay was based on a custom protocol developed by the Viola lab described previously (see, e.g., Thangavelu et al., 2017, “Design and optimization of aspartate N-acetyltransferase inhibitors for the potential treatment of Canavan disease,” Bioorganic & Medicinal Chemistry, 25(3), pp. 870-885). Each of the purchased compounds was tested in an initial screen at 1 mM, followed by a second screen of the initial inhibitors at 50 μM.
The challenge of solubilizing and purifying the membrane-associated enzyme ANAT has been addressed through the creation of a fusion construct with maltose binding protein (MBP) as a fusion partner, as described previously. Briefly, aspartate ANAT was expressed with an N-terminal MBP tag in E. coli BL21(DE3) cells. A 6×His-tag was inserted at the C-terminal of the enzyme to facilitate purification. 20 ml LB media was grown overnight from a single colony in the presence of kanamycin at a final concentration of 50 μg/ml at 37° C. The overnight culture was then diluted into 2 L LB media and grown with shaking at 37° C. until the OD600 reached 0.6. Isopropyl β-D-thiogalactopyranoside (IPTG) was then added at a final concentration of 0.1 mM for induction, and cell growth continued at 16° C. for 16-20 hours. The cell culture was harvested by centrifugation at 11,000 rpm for 15 min. The cells were then resuspended in binding buffer consisting of 20 mM potassium phosphate, pH 7.4, 300 mM NaCl, 20 mM imidazole, and 10% glycerol. The cells were lysed by adding lysozyme (50 μg/ml of buffer) and DNAse (5 μg/ml of buffer) in an ultrasonic dismembrator, followed by clarification of the cells by centrifugation at 11,000 rpm to remove the insoluble cell debris. The clarified supernatant was loaded onto a Ni-NTA column and eluted with a 20-300 mM imidazole gradient in the binding buffer using an AKTA chromatography system. The fractions containing active enzyme purified from the Ni-NTA column were pooled and loaded onto a dextrin-Sepharose column for further purification. The MBP-ANAT fusion enzyme was eluted from this column by using a 0-10 mM maltose gradient. SDS-PAGE gel was run to confirm the molecular weight and purity of the enzyme.
ANAT activity was measured by monitoring the production of coenzyme A using 5,5′-dithio-bis-[2-nitrobenzoic acid] (DTNB). […] The increasing absorption at 412 nm was monitored for up to 30 min during the reaction. 10% DMSO was maintained in the first screen while 20% DMSO was used in the second screen to dissolve the insoluble or partially soluble compounds in the assay wells.
Ki was calculated using the competitive inhibition routine within the nonlinear regression module of GraphPad Prism 8.3.0 with the following equation: […]
where Km for L-aspartate was set to 160 μM, and [I] and [S] denote the concentrations of the inhibitor and substrate, respectively.

Row | Ki [µM] | potency against ANAT | Compound
1 | 8.2 | low-micromolar | Nc1cc(N)nc(SCc2ncc(-c3ccc(F)cc3)o2)n1 [Formula 1, 2-{[5-(p-Fluorophenyl)-1,3-oxazol-2-yl]methylthio}-4,6-pyrimidinediamine]
2 | 9.1 | low-micromolar | Cc1nnc(SCc2nnc(-c3c(-c4ccccc4)noc3C)o2)s1 [Formula 3, 5-(5-Methyl-3-phenyl-4-isoxazolyl)-2-[(5-methyl-1,3,4-thiadiazol-2-ylthio)methyl]-1,3,4-oxadiazole]
3 | 4.5 | low-micromolar | Cc1c(C(=O)O)sc2[nH]c(=O)cc(CSc3nnc(C4CC4)[nH]3)c12 [Formula 4, 4-[(5-Cyclopropyl-4H-1,2,4-triazol-3-ylthio)methyl]-3-methyl-6-oxo-1-thia-7-aza-7H-indene-2-carboxylic acid]
4 | 0.91 | low-micromolar | O=C(OCCSc1ccc([N+](=O)[O-])c2nonc12)c1ccc(Cl)cc1Cl [Formula 5, 2-(7-Nitro-2,1,3-benzofurazan-4-ylthio)ethyl 2,4-dichlorobenzoate]

Row | Compound | Ki [µM] | potency against ANAT
5 | CCOC(=O)c1sc(NC(=O)COC(=O)Cn2c(=O)cnc3ccccc32)cc1C [Formula 2, Ethyl 3-methyl-5-{2-[(2-oxo-1H-quinoxalin-1-yl)acetoxy]acetylamino}-2-thenoate] | 8.5 | low-micromolar
